Assay results taken from US9340549B2, “Oxazolidinone compounds and derivatives thereof” (priority 2012, dated 2016).

Biological target: 6×HIS-tankyrase 1 (1091-1325) (Homo sapiens (Human), UniProt O95271)
Experiment: biochemical
Assay type: biochemical
Settings: 0.25 nM enzyme, 400 nM NAD, 60 minutes at room temperature; read-out: TNKS1 IP IC50

6×HIS-tankyrase 1 (1091-1325), sequence (O95271 1091-1325): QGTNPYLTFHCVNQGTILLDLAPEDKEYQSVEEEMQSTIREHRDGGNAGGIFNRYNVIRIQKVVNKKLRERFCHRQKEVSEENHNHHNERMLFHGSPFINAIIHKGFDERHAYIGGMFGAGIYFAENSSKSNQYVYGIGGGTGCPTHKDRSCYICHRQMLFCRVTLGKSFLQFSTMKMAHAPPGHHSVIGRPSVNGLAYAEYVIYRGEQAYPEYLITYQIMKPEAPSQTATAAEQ

Row | Structure (SMILES) | IC50 [nM]
1 | Cc1ccc([C@H]2CC[C@H](N3C(=O)OC(C)(C)[C@@H]3c3ccccc3)CC2)cn1 [Example 135, (S)-5,5-dimethyl-3-((1r,4s)-4-(6-methylpyridin-3-yl)cyclohexyl)-4-phenyloxazolidin-2-one] | 1380
2 | CC1(C)OC(=O)N([C@H]2CC[C@H](c3cccnc3)CC2)[C@H]1c1ccccc1 [Example 133, (S)-5,5-dimethyl-4-phenyl-3-((1r,4s)-4-(pyridin-3-yl)cyclohexyl)oxazolidin-2-one] | 1380
3 | CC1(C)OC(=O)N([C@H]2CC[C@@H](c3cc4ccncc4[nH]c3=O)CC2)[C@H]1c1ccccc1 [Example 138, (S)-5,5-dimethyl-3-((1s,4r)-4-(2-oxo-1,2-dihydro-1,7-naphthyridin-3-yl)cyclohexyl)-4-phenyloxazolidin-2-one] | 1250
4 | Cc1ccc([C@H]2CC[C@@H](N3C(=O)OC(C)(C)[C@@H]3c3ccccc3)CC2)cn1 [Example 134, (S)-5,5-dimethyl-3-((1 s,4r)-4-(6-methylpyridin-3-yl)cyclohexyl)-4-phenyloxazolidin-2-one] | > 46300

Same assay, conditions: […] enzyme, 400 nM NAD, 60 minutes at room temperature; read-out: TNKS1 IP IC50

Row | Structure (SMILES) | IC50 [nM]
5 | CC1(C)OC(=O)N([C@H]2CC[C@H](c3nnc(-c4ccccc4)o3)CC2)[C@H]1c1ccccc1 [Example 85, (S)-5,5-dimethyl-4-phenyl-3-((1r,4S)-4-(5-phenyl-1,3,4-oxadiazol-2-yl)cyclohexyl)oxazolidin-2-one] | 45.2
6 | CC1(C)OC(=O)N(C2CCN(c3cnc4ccn(-c5ncccn5)c4c3)CC2)[C@H]1c1ccccc1 [Example 140, (S)-5,5-dimethyl-4-phenyl-3-(1-(1-(pyrimidin-2-yl)-1H-pyrrolo[3,2-b]pyridin-6-yl)piperidin-4-yl)oxazolidin-2-one] | 24.3
7 | CC1(C)OC(=O)N(c2ccc(C(=O)Nc3cccc4cccnc34)cc2)[C@@H]1c1ccccn1 [Example 122, (R)-4-(5,5-dimethyl-2-oxo-4-(pyridin-2-yl)oxazolidin-3-yl)-N-(quinolin-8-yl)benzamide] | 1530
8 | Cn1cc(C(=O)N[C@H]2CC[C@H](N3C(=O)OC(C)(C)[C@@H]3c3ccccc3)CC2)c2ccccc21 [Example 143, N-((1R,4r)-4-((R)-5,5-dimethyl-2-oxo-4-phenyloxazolidin-3-yl)cyclohexyl)-1-methyl-1H-indole-3-carboxamide] | 225
9 | CC1(C)OC(=O)N([C@H]2CC[C@H](n3ncc4cc(C#N)ccc43)CC2)[C@H]1c1ccccc1 [Example 181, 1-((1S,4r)-4-((S)-5,5-dimethyl-2-oxo-4-phenyloxazolidin-3-yl)cyclohexyl)-1H-indazole-5-carbonitrile] | 714
10 | CC1(C)OC(=O)N([C@H]2CC[C@H](NC(=O)c3nccs3)CC2)[C@H]1c1ccccc1 [Example 160, N-((1S,4r)-4-((S)-5,5-dimethyl-2-oxo-4-phenyloxazolidin-3-yl)cyclohexyl)thiazole-2-carboxamide] | 1460
11 | CC1(C)OC(=O)N([C@H]2CC[C@H](NC(=O)c3cn4ccccc4n3)CC2)[C@@H]1c1ccccc1 [Example 162, N-((1R,4r)-4-((R)-5,5-dimethyl-2-oxo-4-phenyloxazolidin-3-yl)cyclohexyl)imidazo[1,2-a]pyridine-2-carboxamide] | 101
12 | CC1(C)OC(=O)N([C@H]2CC[C@@H](c3cnc4cc[nH]c4c3)CC2)[C@H]1c1ccccc1 [Example 172, (S)-3-((1s,4R)-4-(1H-pyrrolo[3,2-b]pyridin-6-yl)cyclohexyl)-5,5-dimethyl-4-phenyloxazolidin-2-one] | 1250
13 | CC1(C)OC(=O)N([C@H]2CC[C@H](NC(=O)c3coc(-c4ccccc4)n3)CC2)[C@H]1c1ccccc1 [Example 164, N-((1S,4r)-4-((S)-5,5-dimethyl-2-oxo-4-phenyloxazolidin-3-yl)cyclohexyl)-2-phenyloxazole-4-carboxamide] | 51.9
14 | CC1(C)OC(=O)N(C2CC(c3nnc(-c4ccccc4)o3)C2)[C@@H]1c1ccccc1 (mixture of isomers) [Example 175, Mixture of (R)-5,5-dimethyl-4-phenyl-3-((1r,3R)-3-(5-phenyl-1,3,4-oxadiazol-2-yl)cyclobutyl)oxazolidin-2-one compound and (S)-5,5-dimethyl-4-phenyl-3-((1r,3S)-3-(5-phenyl-1,3,4-oxadiazol-2-yl)cyclobutyl)oxazolidin-2-one (1:1)] | 1470
15 | CC1(C)OC(=O)N([C@H]2CC[C@H](NC(=O)c3cnc4ccccc4c3)CC2)[C@@H]1c1ccccc1 [Example 155, N-((1R,4r)-4-((R)-5,5-dimethyl-2-oxo-4-phenyloxazolidin-3-yl)cyclohexyl)quinoline-3-carboxamide] | 548
16 | CC1(C)OC(=O)N([C@H]2CC[C@H](NC(=O)c3cccc4[nH]ncc34)CC2)[C@H]1c1ccccc1 [Example 153, N-((1S,4r)-4-((S)-5,5-dimethyl-2-oxo-4-phenyloxazolidin-3-yl)cyclohexyl)-1H-indazole-4-carboxamide] | 848
17 | CC1(C)OC(=O)N([C@H]2CC[C@H](NC(=O)c3ccncn3)CC2)[C@H]1c1ccccc1 [Example 165, N-((1S,4r)-4-((S)-5,5-dimethyl-2-oxo-4-phenyloxazolidin-3-yl)cyclohexyl)pyrimidine-4-carboxamide] | 260
18 | CC1(C)OC(=O)N([C@H]2CC[C@H](NC(=O)c3cc4ccncc4[nH]3)CC2)[C@H]1c1ccccc1 [Example 149, N-((1S,4r)-4-((S)-5,5-dimethyl-2-oxo-4-phenyloxazolidin-3-yl)cyclohexyl)-1H-pyrrolo[2,3-c]pyridine-2-carboxamide] | 34
19 | CC1(C)OC(=O)N([C@H]2CC[C@H](NC(=O)c3ccccc3)CC2)[C@H]1c1ccccc1 [Example 141, N-((1S,4r)-4-((S)-5,5-dimethyl-2-oxo-4-phenyloxazolidin-3-yl)cyclohexyl)benzamide] | 755
20 | CC1(C)OC(=O)N([C@H]2CC[C@H](NC(=O)c3cscn3)CC2)[C@H]1c1ccccc1 [Example 168, N-((1S,4r)-4-((S)-5,5-dimethyl-2-oxo-4-phenyloxazolidin-3-yl)cyclohexyl)thiazole-4-carboxamide] | > 46300
21 | CC1(C)OC(=O)N([C@H]2CC[C@H](NC(=O)c3cnn4cccnc34)CC2)[C@H]1c1ccccc1 [Example 146, N-((1S,4r)-4-((S)-5,5-dimethyl-2-oxo-4-phenyloxazolidin-3-yl)cyclohexyl)pyrazolo[1,5-a]pyrimidine-3-carboxamide] | 9.18
22 | COc1ccccc1C(=O)N[C@H]1CC[C@H](N2C(=O)OC(C)(C)[C@@H]2c2ccccc2)CC1 [Example 163, N-((1S,4r)-4-((S)-5,5-dimethyl-2-oxo-4-phenyloxazolidin-3-yl)cyclohexyl)-2-methoxybenzamide] | 220
23 | CC1(C)OC(=O)N([C@H]2CC[C@H](NC(=O)c3ccc[nH]3)CC2)[C@H]1c1ccccc1 [Example 158, N-((1S,4r)-4-((S)-5,5-dimethyl-2-oxo-4-phenyloxazolidin-3-yl)cyclohexyl)-1H-pyrrole-2-carboxamide] | 142
24 | CC1(C)OC(=O)N([C@H]2CC[C@H](NC(=O)c3ccncc3)CC2)[C@H]1c1ccccc1 [Example 142, N-((1S,4r)-4-((S)-5,5-dimethyl-2-oxo-4-phenyloxazolidin-3-yl)cyclohexyl)isonicotinamide] | 205
25 | CC1(C)OC(=O)N([C@H]2CC[C@H](n3ncc4cc(C#N)ccc43)CC2)[C@@H]1c1ccccc1 [Example 180, 1-((1R,4r)-4-((R)-5,5-dimethyl-2-oxo-4-phenyloxazolidin-3-yl)cyclohexyl)-1H-indazole-5-carbonitrile] | 915

Test system: total β-catenin in SW480 colorectal cells
Experiment: cells
Assay type: cell-based
Settings: Homo sapiens; SW480 cells, 40 to 48 hours, top concentration 10 μM; read-out: SW480-Total β-Catenin IC50 IP
Description: Total β-Catenin MSD 96-Well Plate Assay for SW480 Cells
SW480 colorectal cells were seeded at a density of 10,000/well in CellBIND 96-well plates (Corning catalog no. 3300) in 60 μL of normal growth medium (MEM alpha supplemented with 10% heat inactivated FBS, GlutaMAX, pyruvate, and 10 mM HEPES).
A 10-point, 3-fold dilution series for each TNKS inhibitor was constructed in a 96-well “stock” plate. […] The plates were incubated at 37° C. for 40 to 48 hours. The media was removed from the CellBIND plate via plate inversion and gentle shaking and the inverted plate was touched to a paper towel and immediately placed on ice. […] Plates containing cell lysates were sealed and shaken for one hour at 4° C. and then quickly frozen in a −80° C. for approximately 15 to 30 minutes followed by gradually thawing at 4° C. Finally, lysate containing plates were centrifuged @1000×g (2073 rpm) for 10 minutes at 4° C.
The sealed MSD plate was incubated overnight in a cold room with gentle shaking. The MSD plate was then blocked with 150 μL of Blocker “A” per well and incubated overnight at 4° C. with vigorous shaking. The blocked MSD plate was washed 4 times with 150 μL/well TBS-T wash buffer (150 mM NaCl, 50 mM Tris, pH 7.5, 0.02% Tween-20). Cell lysates (75 μL) were transferred to prepared MSD plates and incubated at 4° C. ON with gentle shaking. […] The detection antibody was incubated for 1 hour at room temperature with vigorous shaking after which plates were washed 3 times with 150 μL/well TBS-T wash buffer. Plates were processed for analysis by the addition of 150 μL/well MSD Read 4× Buffer T with surfactant (catalog no. R92TC-2; diluted 1:3 in deionized water) and were read on the SECTOR Imager 6000.

Row | Structure (SMILES) | IC50 [nM]
26 | CC1(C)OC(=O)N([C@H]2CC[C@H](c3nnc(-c4ccccc4)o3)CC2)[C@H]1c1ccccc1 [Example 85, (S)-5,5-dimethyl-4-phenyl-3-((1r,4S)-4-(5-phenyl-1,3,4-oxadiazol-2-yl)cyclohexyl)oxazolidin-2-one] | 2410
27 | CC1(C)OC(=O)N(C2CCN(c3cnc4ccn(-c5ncccn5)c4c3)CC2)[C@H]1c1ccccc1 [Example 140, (S)-5,5-dimethyl-4-phenyl-3-(1-(1-(pyrimidin-2-yl)-1H-pyrrolo[3,2-b]pyridin-6-yl)piperidin-4-yl)oxazolidin-2-one] | 1830
28 | CC1(C)OC(=O)N([C@H]2CC[C@H](n3c(=O)n(CC(F)F)c4cnccc43)CC2)[C@H]1c1ccccc1 [Example 39, (S)-3-((1r,4S)-4-(3-(2,2-difluoroethyl)-2-oxo-2,3-dihydro-1H-imidazo[4,5-c]pyridin-1-yl)cyclohexyl)-5,5-dimethyl-4-phenyloxazolidin-2-one] | 6750
29 | CC1(C)OC(=O)N(c2ccc(C(=O)Nc3cccc4cccnc34)cc2)[C@@H]1c1ccccn1 [Example 122, (R)-4-(5,5-dimethyl-2-oxo-4-(pyridin-2-yl)oxazolidin-3-yl)-N-(quinolin-8-yl)benzamide] | 8560
30 | CC1(C)OC(=O)N([C@H]2CC[C@H](n3c(=O)[nH]c4cccnc43)CC2)[C@@H]1c1ccccc1 [Example 38, (R)-5,5-dimethyl-3-((1r,4R)-4-(2-oxo-1H-imidazo[4,5-b]pyridin-3(2H)-yl)cyclohexyl)-4-phenyloxazolidin-2-one] | 4740
31 | CC1(C)OC(=O)N([C@H]2CC[C@H](n3c(=O)[nH]c4cc(C#N)c(F)cc43)CC2)[C@H]1c1ccccc1 [Example 103, 1-((1S,4r)-4-((S)-5,5-dimethyl-2-oxo-4-phenyloxazolidin-3-yl)cyclohexyl)-6-fluoro-2-oxo-2,3-dihydro-1H-benzo[d]imidazole-5-carbonitrile] | 67.2
